Assay results: ChEMBL document CHEMBL1145498, “A systematic interaction map of validated kinase inhibitors with Ser/Thr kinases” (Proc Natl Acad Sci U S A, 2007)

What was measured:
[1] = target: T1, Myotonin-protein kinase (Homo sapiens) (UniProt Q09013)
T1 sequence (whole entry): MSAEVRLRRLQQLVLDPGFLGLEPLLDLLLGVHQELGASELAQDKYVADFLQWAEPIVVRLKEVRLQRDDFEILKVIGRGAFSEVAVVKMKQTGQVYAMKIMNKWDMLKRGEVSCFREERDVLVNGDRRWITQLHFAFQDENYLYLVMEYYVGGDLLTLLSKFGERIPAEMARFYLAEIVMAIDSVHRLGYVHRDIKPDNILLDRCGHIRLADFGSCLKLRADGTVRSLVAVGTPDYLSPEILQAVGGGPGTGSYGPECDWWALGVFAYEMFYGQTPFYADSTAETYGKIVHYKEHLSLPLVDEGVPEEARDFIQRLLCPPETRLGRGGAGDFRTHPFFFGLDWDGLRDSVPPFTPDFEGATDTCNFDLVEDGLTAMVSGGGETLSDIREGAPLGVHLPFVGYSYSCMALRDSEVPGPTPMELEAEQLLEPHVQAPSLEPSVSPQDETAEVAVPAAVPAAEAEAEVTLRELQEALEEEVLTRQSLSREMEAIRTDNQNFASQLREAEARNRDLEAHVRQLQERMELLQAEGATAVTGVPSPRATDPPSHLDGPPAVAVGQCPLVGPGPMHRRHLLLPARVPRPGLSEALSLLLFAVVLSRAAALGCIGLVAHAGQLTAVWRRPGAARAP

[2] = target: Serine/threonine-protein kinase 25 (Homo sapiens) (UniProt O00506)
Serine/threonine-protein kinase 25 (Homo sapiens), sequence (O00506 whole entry, looked up): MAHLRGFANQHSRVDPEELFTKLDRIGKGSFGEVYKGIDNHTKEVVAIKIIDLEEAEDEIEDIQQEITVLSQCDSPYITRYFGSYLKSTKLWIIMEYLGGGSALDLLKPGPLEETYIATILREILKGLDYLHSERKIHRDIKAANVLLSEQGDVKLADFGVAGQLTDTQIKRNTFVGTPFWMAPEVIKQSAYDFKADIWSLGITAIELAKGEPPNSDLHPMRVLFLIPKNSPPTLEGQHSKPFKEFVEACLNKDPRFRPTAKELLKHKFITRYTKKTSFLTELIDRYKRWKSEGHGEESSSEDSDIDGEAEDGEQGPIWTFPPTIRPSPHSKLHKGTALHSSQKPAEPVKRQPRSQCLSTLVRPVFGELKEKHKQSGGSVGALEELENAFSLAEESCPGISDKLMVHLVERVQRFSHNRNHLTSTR

[3] = target: TRAF2 and NCK-interacting protein kinase (Homo sapiens) (UniProt Q9UKE5)
TRAF2 and NCK-interacting protein kinase (Homo sapiens), sequence (Q9UKE5 whole entry, looked up): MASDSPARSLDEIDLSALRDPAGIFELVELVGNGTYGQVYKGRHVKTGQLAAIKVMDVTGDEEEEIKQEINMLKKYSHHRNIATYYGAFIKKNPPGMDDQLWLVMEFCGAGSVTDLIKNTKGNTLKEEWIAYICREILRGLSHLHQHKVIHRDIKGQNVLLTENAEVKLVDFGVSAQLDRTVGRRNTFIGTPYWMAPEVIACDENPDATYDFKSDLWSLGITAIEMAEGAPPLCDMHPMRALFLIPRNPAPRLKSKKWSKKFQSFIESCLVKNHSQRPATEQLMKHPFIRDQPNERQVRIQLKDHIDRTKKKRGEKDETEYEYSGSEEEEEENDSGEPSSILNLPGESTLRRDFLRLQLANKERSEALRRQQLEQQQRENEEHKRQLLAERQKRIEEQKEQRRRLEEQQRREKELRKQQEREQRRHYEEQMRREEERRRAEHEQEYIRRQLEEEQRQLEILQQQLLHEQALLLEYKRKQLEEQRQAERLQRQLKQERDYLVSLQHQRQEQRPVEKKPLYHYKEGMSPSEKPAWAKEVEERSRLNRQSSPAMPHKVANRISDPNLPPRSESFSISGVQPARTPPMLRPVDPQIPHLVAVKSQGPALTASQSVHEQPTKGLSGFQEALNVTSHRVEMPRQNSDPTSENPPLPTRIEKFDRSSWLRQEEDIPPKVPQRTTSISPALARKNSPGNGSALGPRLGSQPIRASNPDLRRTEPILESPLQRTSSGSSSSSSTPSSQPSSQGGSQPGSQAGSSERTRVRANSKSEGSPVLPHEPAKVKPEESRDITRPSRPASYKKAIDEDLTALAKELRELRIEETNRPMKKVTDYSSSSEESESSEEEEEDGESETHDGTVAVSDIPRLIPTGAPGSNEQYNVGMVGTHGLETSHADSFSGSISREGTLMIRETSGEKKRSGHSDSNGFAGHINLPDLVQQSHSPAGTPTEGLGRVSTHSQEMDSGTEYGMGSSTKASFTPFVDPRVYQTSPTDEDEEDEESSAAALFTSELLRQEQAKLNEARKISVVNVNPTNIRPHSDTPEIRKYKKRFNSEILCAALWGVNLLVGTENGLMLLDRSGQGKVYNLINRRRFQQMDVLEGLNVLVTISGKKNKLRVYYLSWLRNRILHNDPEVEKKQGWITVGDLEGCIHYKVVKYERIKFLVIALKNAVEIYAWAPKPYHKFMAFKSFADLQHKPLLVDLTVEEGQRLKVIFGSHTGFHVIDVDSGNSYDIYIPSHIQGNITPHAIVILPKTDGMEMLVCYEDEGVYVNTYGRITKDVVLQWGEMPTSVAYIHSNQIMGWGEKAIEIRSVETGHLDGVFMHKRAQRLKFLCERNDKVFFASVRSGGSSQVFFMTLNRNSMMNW

[4] = target: Calcium/calmodulin-dependent protein kinase type II subunit delta (Homo sapiens) (UniProt Q13557)
Calcium/calmodulin-dependent protein kinase type II subunit delta (Homo sapiens), sequence (Q13557 whole entry): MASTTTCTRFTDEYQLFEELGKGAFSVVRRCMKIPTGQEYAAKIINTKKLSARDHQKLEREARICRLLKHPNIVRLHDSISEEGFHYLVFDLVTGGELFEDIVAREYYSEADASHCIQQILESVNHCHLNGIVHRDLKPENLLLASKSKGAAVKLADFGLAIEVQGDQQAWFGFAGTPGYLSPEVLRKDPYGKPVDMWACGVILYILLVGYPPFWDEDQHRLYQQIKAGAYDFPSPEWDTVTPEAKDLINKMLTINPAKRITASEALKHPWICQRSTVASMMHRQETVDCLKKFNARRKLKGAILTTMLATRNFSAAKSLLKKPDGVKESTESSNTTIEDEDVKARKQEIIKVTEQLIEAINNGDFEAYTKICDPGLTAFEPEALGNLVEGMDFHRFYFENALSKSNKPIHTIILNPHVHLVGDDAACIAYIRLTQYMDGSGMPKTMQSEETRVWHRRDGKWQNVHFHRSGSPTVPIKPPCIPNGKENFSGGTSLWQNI

[5] = target: T2, Calcium/calmodulin-dependent protein kinase type IV (Homo sapiens) (UniProt Q16566)
T2 sequence (whole entry): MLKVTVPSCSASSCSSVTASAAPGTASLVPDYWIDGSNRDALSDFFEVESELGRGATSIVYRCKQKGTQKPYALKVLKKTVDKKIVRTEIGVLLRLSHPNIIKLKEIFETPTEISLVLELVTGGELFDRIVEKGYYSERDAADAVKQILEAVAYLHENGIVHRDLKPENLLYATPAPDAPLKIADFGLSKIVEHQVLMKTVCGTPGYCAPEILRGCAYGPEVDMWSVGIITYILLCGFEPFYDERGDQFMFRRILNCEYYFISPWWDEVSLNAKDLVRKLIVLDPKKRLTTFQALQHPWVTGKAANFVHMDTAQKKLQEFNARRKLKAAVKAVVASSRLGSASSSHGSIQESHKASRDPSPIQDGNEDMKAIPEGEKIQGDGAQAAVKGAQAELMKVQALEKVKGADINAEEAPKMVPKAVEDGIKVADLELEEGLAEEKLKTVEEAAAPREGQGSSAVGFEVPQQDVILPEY

[6] = target: Serine/threonine-protein kinase 16 (Homo sapiens) (UniProt O75716)
Serine/threonine-protein kinase 16 (Homo sapiens), sequence (O75716 whole entry): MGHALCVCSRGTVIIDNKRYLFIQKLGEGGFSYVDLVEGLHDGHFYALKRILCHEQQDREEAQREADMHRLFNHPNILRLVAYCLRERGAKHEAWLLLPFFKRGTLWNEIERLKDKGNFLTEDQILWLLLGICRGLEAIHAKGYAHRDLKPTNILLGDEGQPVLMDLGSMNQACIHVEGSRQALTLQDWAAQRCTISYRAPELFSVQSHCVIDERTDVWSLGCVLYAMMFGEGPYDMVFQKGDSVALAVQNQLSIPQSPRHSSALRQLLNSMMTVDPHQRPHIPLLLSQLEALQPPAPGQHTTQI

[7] = target: Serine/threonine-protein kinase pim-3 (Homo sapiens) (UniProt Q86V86)
[8] = target: T3, 3-phosphoinositide-dependent protein kinase 1 (Homo sapiens) (UniProt O15530)
T3 sequence (whole entry): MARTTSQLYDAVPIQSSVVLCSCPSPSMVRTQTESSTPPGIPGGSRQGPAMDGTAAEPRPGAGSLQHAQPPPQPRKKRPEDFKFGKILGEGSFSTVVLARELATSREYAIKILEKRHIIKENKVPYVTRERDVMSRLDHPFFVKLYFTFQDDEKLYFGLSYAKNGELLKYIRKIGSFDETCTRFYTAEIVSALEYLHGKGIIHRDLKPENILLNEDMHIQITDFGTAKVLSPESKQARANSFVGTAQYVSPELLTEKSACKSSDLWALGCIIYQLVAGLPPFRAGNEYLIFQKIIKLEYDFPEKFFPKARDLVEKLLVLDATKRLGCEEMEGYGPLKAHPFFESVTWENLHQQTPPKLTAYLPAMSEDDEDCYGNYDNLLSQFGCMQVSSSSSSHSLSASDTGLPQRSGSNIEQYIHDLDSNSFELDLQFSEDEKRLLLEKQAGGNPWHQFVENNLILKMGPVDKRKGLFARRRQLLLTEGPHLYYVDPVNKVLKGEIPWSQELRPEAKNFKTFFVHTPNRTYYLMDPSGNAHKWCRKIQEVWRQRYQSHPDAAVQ

[9] = target: Serine/threonine-protein kinase PLK1 (Homo sapiens) (UniProt P53350)
[10] = target: Serine/threonine-protein kinase RIO2 (Homo sapiens) (UniProt Q9BVS4)
[11] = target: Calcium/calmodulin-dependent protein kinase type 1G (Homo sapiens) (UniProt Q96NX5)
Calcium/calmodulin-dependent protein kinase type 1G (Homo sapiens), sequence (Q96NX5 whole entry): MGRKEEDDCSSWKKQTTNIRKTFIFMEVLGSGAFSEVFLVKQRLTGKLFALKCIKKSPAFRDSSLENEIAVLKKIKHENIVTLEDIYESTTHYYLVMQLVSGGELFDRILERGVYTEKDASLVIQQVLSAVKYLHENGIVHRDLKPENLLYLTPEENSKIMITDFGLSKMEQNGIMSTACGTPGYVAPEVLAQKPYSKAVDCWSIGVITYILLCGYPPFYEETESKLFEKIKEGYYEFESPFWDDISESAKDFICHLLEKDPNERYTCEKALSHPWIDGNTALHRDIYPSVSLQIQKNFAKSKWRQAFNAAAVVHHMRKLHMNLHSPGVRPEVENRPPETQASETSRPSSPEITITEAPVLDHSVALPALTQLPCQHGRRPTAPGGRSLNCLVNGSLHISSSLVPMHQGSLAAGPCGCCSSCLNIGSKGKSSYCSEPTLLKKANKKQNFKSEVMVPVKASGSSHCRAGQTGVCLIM

[12] = target: T4, Lymphokine-activated killer T-cell-originated protein kinase (Homo sapiens) (UniProt Q96KB5)
T4 sequence (whole entry): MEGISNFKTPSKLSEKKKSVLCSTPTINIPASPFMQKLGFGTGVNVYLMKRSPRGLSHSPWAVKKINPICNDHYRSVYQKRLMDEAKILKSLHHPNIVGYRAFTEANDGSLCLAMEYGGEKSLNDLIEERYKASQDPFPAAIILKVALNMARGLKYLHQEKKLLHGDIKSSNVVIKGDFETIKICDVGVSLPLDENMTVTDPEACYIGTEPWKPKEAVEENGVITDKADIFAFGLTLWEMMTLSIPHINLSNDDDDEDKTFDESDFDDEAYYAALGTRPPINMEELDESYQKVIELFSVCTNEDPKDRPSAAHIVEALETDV

[13] = target: Mitogen-activated protein kinase 11 (Homo sapiens, UniProt Q15759)
Mitogen-activated protein kinase 11, sequence (Q15759 whole entry): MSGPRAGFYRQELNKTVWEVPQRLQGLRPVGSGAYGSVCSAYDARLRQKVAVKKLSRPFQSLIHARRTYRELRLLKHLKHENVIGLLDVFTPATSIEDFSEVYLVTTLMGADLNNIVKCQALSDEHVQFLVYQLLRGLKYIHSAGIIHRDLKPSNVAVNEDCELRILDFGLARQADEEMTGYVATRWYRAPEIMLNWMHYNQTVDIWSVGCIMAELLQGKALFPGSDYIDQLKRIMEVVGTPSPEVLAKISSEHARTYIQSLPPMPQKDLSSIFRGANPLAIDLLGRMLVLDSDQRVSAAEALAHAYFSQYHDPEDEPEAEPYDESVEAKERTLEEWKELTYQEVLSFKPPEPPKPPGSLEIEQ

[14] = target: Serine/threonine-protein kinase Chk2 (Homo sapiens, UniProt O96017)
Serine/threonine-protein kinase Chk2, sequence (O96017 whole entry): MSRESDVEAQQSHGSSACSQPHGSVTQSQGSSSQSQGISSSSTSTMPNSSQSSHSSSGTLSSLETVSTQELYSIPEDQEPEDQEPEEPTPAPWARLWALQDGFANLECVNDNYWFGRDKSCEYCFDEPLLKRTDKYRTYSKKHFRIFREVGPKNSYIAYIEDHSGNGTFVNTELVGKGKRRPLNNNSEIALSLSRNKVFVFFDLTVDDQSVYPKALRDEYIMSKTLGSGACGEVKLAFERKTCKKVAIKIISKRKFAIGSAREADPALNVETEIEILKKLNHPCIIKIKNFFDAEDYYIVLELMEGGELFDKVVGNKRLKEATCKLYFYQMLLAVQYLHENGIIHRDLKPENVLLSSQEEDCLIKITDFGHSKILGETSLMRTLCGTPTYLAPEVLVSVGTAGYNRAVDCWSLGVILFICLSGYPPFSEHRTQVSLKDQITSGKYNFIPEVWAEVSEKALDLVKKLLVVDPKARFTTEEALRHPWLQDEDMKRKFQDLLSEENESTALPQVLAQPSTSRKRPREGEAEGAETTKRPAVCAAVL

[15] = target: Calcium/calmodulin-dependent protein kinase type II subunit gamma (Homo sapiens) (UniProt Q13555)
[16] = target: Serine/threonine-protein kinase pim-2 (Homo sapiens, UniProt Q9P1W9)
Serine/threonine-protein kinase pim-2, sequence (Q9P1W9 whole entry, looked up): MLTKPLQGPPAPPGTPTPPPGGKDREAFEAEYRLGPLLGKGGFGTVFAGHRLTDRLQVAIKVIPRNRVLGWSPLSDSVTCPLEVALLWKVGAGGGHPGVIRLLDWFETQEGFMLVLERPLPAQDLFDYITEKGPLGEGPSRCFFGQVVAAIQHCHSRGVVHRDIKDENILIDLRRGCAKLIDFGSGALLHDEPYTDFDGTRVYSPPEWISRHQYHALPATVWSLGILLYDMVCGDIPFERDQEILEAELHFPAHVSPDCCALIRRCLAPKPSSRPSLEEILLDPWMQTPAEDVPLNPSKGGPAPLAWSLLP

[17] = target: Calcium/calmodulin-dependent protein kinase type II subunit alpha (Homo sapiens) (UniProt Q9UQM7)
[18] = target: Ribosomal protein S6 kinase alpha-3 (Homo sapiens) (UniProt P51812)
Ribosomal protein S6 kinase alpha-3 (Homo sapiens), sequence (P51812 whole entry): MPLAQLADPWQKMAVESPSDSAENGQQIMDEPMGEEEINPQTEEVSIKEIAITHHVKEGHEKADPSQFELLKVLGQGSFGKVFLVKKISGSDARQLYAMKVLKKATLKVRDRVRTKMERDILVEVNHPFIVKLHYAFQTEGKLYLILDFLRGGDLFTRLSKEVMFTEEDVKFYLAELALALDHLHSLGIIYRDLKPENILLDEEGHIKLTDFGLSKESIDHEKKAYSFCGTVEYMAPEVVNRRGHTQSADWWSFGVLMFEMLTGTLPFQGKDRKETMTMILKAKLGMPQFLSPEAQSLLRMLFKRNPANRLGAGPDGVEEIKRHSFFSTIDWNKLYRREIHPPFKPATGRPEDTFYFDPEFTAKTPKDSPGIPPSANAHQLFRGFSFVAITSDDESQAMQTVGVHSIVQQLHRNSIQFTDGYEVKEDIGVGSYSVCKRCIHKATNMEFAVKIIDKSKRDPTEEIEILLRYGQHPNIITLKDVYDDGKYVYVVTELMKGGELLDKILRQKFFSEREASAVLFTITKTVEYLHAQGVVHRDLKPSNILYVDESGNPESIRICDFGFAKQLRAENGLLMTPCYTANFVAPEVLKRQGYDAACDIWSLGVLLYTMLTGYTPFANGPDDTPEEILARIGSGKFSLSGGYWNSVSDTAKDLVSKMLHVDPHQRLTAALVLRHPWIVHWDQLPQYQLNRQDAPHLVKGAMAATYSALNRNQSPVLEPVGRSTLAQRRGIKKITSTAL

Structure (SMILES) | ΔTm [1] [°C] | ΔTm [2] [°C] | ΔTm [3] [°C] | ΔTm [4] [°C] | ΔTm [5] [°C] | ΔTm [6] [°C] | ΔTm [7] [°C] | ΔTm [8] [°C] | ΔTm [9] [°C] | ΔTm [10] [°C] | ΔTm [11] [°C] | ΔTm [12] [°C] | ΔTm [13] [°C] | ΔTm [14] [°C] | ΔTm [15] [°C] | ΔTm [16] [°C] | ΔTm [17] [°C] | ΔTm [18] [°C]
O=C1Cc2c([nH]c3ccc(Br)cc23)-c2ccccc2N1 [KENPAULLONE] | 5.8 | 2.7 | 6.7 | 0.2 | 0.3 | 0.7 | 4.6 | -0.8 | 0.1 | 1.8 | 0.3 | -2 | 0.2 | 6.1 | -0.2 | 1.2 | 0 | 
CC[C@H](CO)Nc1nc(NCc2ccccc2)c2ncn(C(C)C)c2n1 [SELICICLIB] | -0.7 | 0.3 | 0.4 | 0.1 | 0.2 |  | 0.5 | 0.2 | 1 | 0 | 0 | 0.8 | 1 | 0 | 0.3 | 0.3 |  | 1.1
COc1ccc2c(c1)/C(=C/c1cnc[nH]1)C(=O)N2 [SU-9516] | 0.8 | 6.4 | 5.7 | -0.5 | 1.5 | 4.4 | 2.3 | 0.2 | 0.7 | 1.3 | 0.4 | 0 | 0.8 | 1.6 | 1 | 1.7 | 1 | 
COc1ccc(S(=O)(=O)N(CCO)c2ccccc2CN(C)C/C=C/c2ccc(Cl)cc2)cc1 | -0.7 |  | 1.3 | -1.2 | -0.3 | 0.5 | 0.5 | 0.4 | -0.2 | -0.4 | 0.3 | -0.1 | 0.2 | -0.1 | -0.6 | 0.6 | -0.7 | -0.9
O=C(O)c1cc(N(Cc2ccccc2O)Cc2cc(O)ccc2O)ccc1O [LAVENDUSTIN A] | 0.9 |  | 0 | 0.3 | 0.5 | 2.6 | 0.4 | 0.6 | 0.9 | 0 | 0.2 | 0 | 0.3 | 0.8 | -0.1 | 1.1 | 1.3 | -0.2
Cc1cc(Nc2nc(-c3ccccc3)nc3ccccc23)n[nH]1 | 1.9 |  | -1 | 0.7 | 4.7 | 5.6 | 5.2 | -0.4 | 10.8 | 5.3 | 3.7 | 0.9 | 0.1 | 5.7 | 1.9 | 0.7 | 1.4 | 0.8
Cc1[nH]c(/C=C2\C(=O)Nc3ccc(S(=O)(=O)N(C)c4cccc(Cl)c4)cc32)c(C)c1C(=O)N1CCN(C)CC1 | 2.2 |  | 0.4 | 0.5 | -0.1 | 0.6 | 9.7 | -0.6 | 1.9 | 1.4 | 1.7 | 0.1 | 0.1 | 2.9 | 0.6 | 1 | 3 | 7.7
O=C1NC(=O)C(c2cn(CCCn3ccnc3)c3ccccc23)=C1Nc1ccccc1 | 4.5 |  | -0.7 | 0.1 | -0.7 | 0.6 | -0.3 | 0.1 | 1.2 | 6.1 | 1 | 0.8 | 0 | 1.5 | 0.9 | 1.5 | 1.7 | 0.5
O=C1NC(=O)c2c1c1c3ccccc3[nH]c1n1cncc21 [ISOGRANULATIMIDE] | 2.2 |  | 0 | 1 | 6 | 7.4 | 8.8 | 1.9 | 9.3 | 7.3 | 3.4 | 1 | 2 | 6.6 | 2.5 | 8 | 3.6 | 5.2
COc1cc2ncnc(Nc3ccc(NC(=O)c4ccccc4)cc3)c2cc1OC [ANILINOQUINAZOLINE1] | 1.1 |  | 0.9 | 0.4 | 0.9 | 0.4 | 6.2 | 1.1 | -0.5 | 0.6 | 2 | 0.3 | 0.3 | 7.3 | 0.2 | 0.3 | 0 | 5.5
CCCNC(=O)Nc1ccc(Oc2ncnc3cc(OC)c(OC)cc23)cc1Cl [KRN-633] | 0.6 |  | 0.2 | 0.3 | 0.9 | 0.2 | 4.9 | -0.1 | 0.1 | 0.2 | 1 | 0.2 | -0.3 | 2.4 | 0.3 | 0.2 | 0.8 | 5.8
